The text below walks through data of the supplement of paper PMC10307832.

Holding throughout (assay): relative viability (nuclei count vs DMSO), 5 days (fraction); higher = more cells survive
Compound in the assay “Sulindac + Alpelisib”: CC1=C(CC(=O)O)c2cc(F)ccc2/C1=C\c1ccc([S+](C)[O-])cc1 [Sulindac] + Cc1nc(NC(=O)N2CCC[C@H]2C(N)=O)sc1-c1ccnc(C(C)(C)C(F)(F)F)c1 [Alpelisib] (partner 2 µM)
In a few lines: (§1)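 Medians of duplicate plates are given as relative viability. That measure is the nuclei count in treated wells divided by the count in vehicle wells. Counts were taken on 4× images of lung cancer cell lines in 1536-well plates, 5 days after pin-tool dosing the day after seeding with one drug alone or a fixed anchor-drug dose plus five library-drug doses (not always all listed) in √10 steps.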

Compound in assay [1]: CN[C@@H]1C[C@H]2O[C@@](C)([C@@H]1OC)n1c3ccccc3c3c4c(c5c6ccccc6n2c5c31)C(=O)NC4 [Staurosporine] + CS(=O)(=O)CCNCc1ccc(-c2ccc3ncnc(Nc4ccc(OCc5cccc(F)c5)c(Cl)c4)c3c2)o1 [Lapatinib] (partner 2 µM)
In a few lines: as §1

Compound in assay [2]: CN[C@@H]1C[C@H]2O[C@@](C)([C@@H]1OC)n1c3ccccc3c3c4c(c5c6ccccc6n2c5c31)C(=O)NC4 [Staurosporine] + CC(=O)Nc1cccc(-n2c(=O)n(C3CC3)c(=O)c3c(Nc4ccc(I)cc4F)n(C)c(=O)c(C)c32)c1 [Trametinib] (partner 0.02 µM)
In a few lines: as §1

Compound in the assay “Sulindac + Olaparib”: CC1=C(CC(=O)O)c2cc(F)ccc2/C1=C\c1ccc([S+](C)[O-])cc1 [Sulindac] + O=C(c1cc(Cc2n[nH]c(=O)c3ccccc23)ccc1F)N1CCN(C(=O)C2CC2)CC1 [Olaparib] (partner 8 µM)
The procedure, abridged:
as §1

Consider PC-14, for which the relative viability in the assay with Sulindac + Alpelisib (first compound 0.08 µM) worked out at 0.986; in the assay with Sulindac + Alpelisib (first compound 0.253 µM), 1.16; with Sulindac + Alpelisib (first compound 2.53 µM), 1.13; in the assay with Sulindac + Alpelisib (first compound 8 µM), 1; in assay [1] (first compound 0.005 µM), 0.293; in assay [1] (first compound 0.01581 µM), 0.247. The relative viability in assay [1] (first compound 0.05 µM) was determined as 0.0956; in assay [1] (first compound 0.1581 µM), 0.0886; in assay [1] (first compound 0.5 µM) it was 0.0786; in assay [2] (first compound 0.005 µM), 0.483; in assay [2] (first compound 0.01581 µM), 0.064; in assay [2] (first compound 0.05 µM) it was 0.0553. Further, the relative viability in assay [2] (first compound 0.1581 µM) stood at 0.0467; in assay [2] (first compound 0.5 µM), 0.0475; with Sulindac + Olaparib (first compound 0.08 µM), 0.271; with Sulindac + Olaparib (first compound 0.253 µM), 0.321; with Sulindac + Olaparib (first compound 0.8 µM), 0.272; in the assay with Sulindac + Olaparib (first compound 2.53 µM) it was 0.209. Moreover, in the assay with Sulindac + Olaparib (first compound 8 µM), the relative viability was found to be 0.272.

RERF-LC-KJ: the relative viability in the assay with Sulindac + Alpelisib (first compound 0.08 µM) turned out to be 0.837; with Sulindac + Alpelisib (first compound 0.253 µM), 0.889; with Sulindac + Alpelisib (first compound 0.8 µM), 0.65; with Sulindac + Alpelisib (first compound 2.53 µM), 0.877; with Sulindac + Alpelisib (first compound 8 µM) it was 0.746; in assay [1] (first compound 0.005 µM) it was 0.878. Further, the relative viability in assay [1] (first compound 0.01581 µM) is 0.821; in assay [1] (first compound 0.05 µM), 0.734; in assay [1] (first compound 0.1581 µM), 0.424; in assay [1] (first compound 0.5 µM), 0.245; in assay [2] (first compound 0.005 µM), 0.795; in assay [2] (first compound 0.01581 µM), 0.604. In addition, the relative viability in assay [2] (first compound 0.1581 µM) stood at 0.328; in assay [2] (first compound 0.5 µM), 0.207; in the assay with Sulindac + Olaparib (first compound 0.08 µM) it was 0.949; with Sulindac + Olaparib (first compound 0.253 µM), 1.01; with Sulindac + Olaparib (first compound 0.8 µM) it was 0.971; with Sulindac + Olaparib (first compound 2.53 µM), 0.861. Further, the relative viability in the assay with Sulindac + Olaparib (first compound 8 µM) is 1.07.

With SK-LU-1, the relative viability with Sulindac + Alpelisib (first compound 0.08 µM) stood at 1.11; with Sulindac + Alpelisib (first compound 0.253 µM), 1.02; with Sulindac + Alpelisib (first compound 0.8 µM), 0.964; in the assay with Sulindac + Alpelisib (first compound 2.53 µM), 0.936; in the assay with Sulindac + Alpelisib (first compound 8 µM), 1.23; in assay [1] (first compound 0.005 µM), 0.611. In addition, the relative viability in assay [1] (first compound 0.01581 µM) is 0.266; in assay [1] (first compound 0.05 µM), 0.153; in assay [1] (first compound 0.1581 µM), 0.162; in assay [1] (first compound 0.5 µM), 0.16; in assay [2] (first compound 0.005 µM) it was 0.253; in assay [2] (first compound 0.01581 µM), 0.15. Besides, the relative viability amounted to 0.172 in assay [2] (first compound 0.05 µM); 0.187 in assay [2] (first compound 0.1581 µM); 0.12 in assay [2] (first compound 0.5 µM); 0.498 with Sulindac + Olaparib (first compound 0.08 µM); 0.525 with Sulindac + Olaparib (first compound 0.253 µM); 0.446 with Sulindac + Olaparib (first compound 0.8 µM). Besides, the relative viability in the assay with Sulindac + Olaparib (first compound 2.53 µM) came to 0.407; in the assay with Sulindac + Olaparib (first compound 8 µM) it was 0.536.

As for SK-MES-1, the relative viability in the assay with Sulindac + Alpelisib (first compound 0.08 µM) came to 1.06; with Sulindac + Alpelisib (first compound 0.253 µM), 1.05; in the assay with Sulindac + Alpelisib (first compound 0.8 µM) it was 0.601; with Sulindac + Alpelisib (first compound 2.53 µM) it was 0.815; with Sulindac + Alpelisib (first compound 8 µM), 0.982; in assay [1] (first compound 0.005 µM), 0.444. For the same cell line, the relative viability in assay [1] (first compound 0.01581 µM) is 0.31; in assay [1] (first compound 0.05 µM) it was 0.311; in assay [1] (first compound 0.1581 µM) it was 0.205; in assay [1] (first compound 0.5 µM), 0.185; in assay [2] (first compound 0.005 µM) it was 0.333; in assay [2] (first compound 0.01581 µM) it was 0.281. Further, the relative viability in assay [2] (first compound 0.05 µM) stood at 0.265; in assay [2] (first compound 0.1581 µM) it was 0.211; in assay [2] (first compound 0.5 µM), 0.139; with Sulindac + Olaparib (first compound 0.08 µM) it was 0.733; with Sulindac + Olaparib (first compound 0.253 µM), 0.825; with Sulindac + Olaparib (first compound 0.8 µM), 0.56. Moreover, the relative viability is 0.712 in the assay with Sulindac + Olaparib (first compound 2.53 µM) and 0.772 with Sulindac + Olaparib (first compound 8 µM).

As to SW 1573, the relative viability stood at 0.706 with Sulindac + Alpelisib (first compound 0.253 µM); 0.793 with Sulindac + Alpelisib (first compound 2.53 µM); 0.934 with Sulindac + Alpelisib (first compound 8 µM); 1.01 in assay [1] (first compound 0.005 µM); 1.07 in assay [1] (first compound 0.01581 µM); 0.417 in assay [1] (first compound 0.05 µM). The relative viability came to 0.355 in assay [1] (first compound 0.1581 µM); 0.186 in assay [1] (first compound 0.5 µM); 0.137 in assay [2] (first compound 0.005 µM); 0.0903 in assay [2] (first compound 0.01581 µM); 0.055 in assay [2] (first compound 0.05 µM); 0.047 in assay [2] (first compound 0.1581 µM). For the same cell line, the relative viability in assay [2] (first compound 0.5 µM) was 0.033; with Sulindac + Olaparib (first compound 0.08 µM) it was 0.52; in the assay with Sulindac + Olaparib (first compound 0.253 µM), 0.523; with Sulindac + Olaparib (first compound 0.8 µM), 0.528; with Sulindac + Olaparib (first compound 2.53 µM) it was 0.478; in the assay with Sulindac + Olaparib (first compound 8 µM), 0.551.
